From the NIST ThermoML archive (doi:10.1016/j.jct.2014.02.016)
± gives the expanded uncertainty stated by the source.

Assay: refractive index (other wavelength) (dimensionless)
Settings: 100 kPa, Liquid, Wavelength=632.8 nm, Angle minimization by sell rotation

COC(=O)OC [dimethyl carbonate]
Settings | refractive index
293.16 K | 1.3678 ± 0.0003
294.29 K | 1.3673 ± 0.0003
295.28 K | 1.3669 ± 0.0003
296.28 K | 1.3663 ± 0.0003
297.28 K | 1.3659 ± 0.0003
298.3 K | 1.3654 ± 0.0003
300.3 K | 1.3644 ± 0.0003
302.3 K | 1.3635 ± 0.0003
303.4 K | 1.363 ± 0.0003

CCCCCCCCCCCCC [tridecane]
Settings | refractive index
294.14 K | 1.4241 ± 0.0003
295.15 K | 1.4236 ± 0.0003
296.18 K | 1.4232 ± 0.0003
297.23 K | 1.4227 ± 0.0003
299.35 K | 1.4218 ± 0.0003
300.44 K | 1.4213 ± 0.0003
302.44 K | 1.4204 ± 0.0003
303.67 K | 1.4199 ± 0.0003
304.45 K | 1.4196 ± 0.0003

CCCCCCCCCCC [undecane]
Settings | refractive index
293.4 K | 1.4162 ± 0.0003
294.3 K | 1.4157 ± 0.0003
295.27 K | 1.4152 ± 0.0003
296.26 K | 1.4148 ± 0.0003
297.25 K | 1.4144 ± 0.0003
298.27 K | 1.4139 ± 0.0003
299.34 K | 1.4134 ± 0.0003
300.31 K | 1.413 ± 0.0003
301.27 K | 1.4126 ± 0.0003
